Legend:
EGFR = target: T1, EGFR (Homo sapiens, UniProt P00533); experiment: EGFR ELISA assay (in vitro kinase activity, EGFR captured from A431 cell lysate); format: biochemical; design: concentration or dose not given beside the values
T1 construct: Add 7 ug A431 cell lysate per well (EGFR source); endogenous in cells; host or cells: A431
Procedure, shortened: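 EGFR from A431 lysate was captured on anti-EGFR antibody-coated plates and preincubated with compounds for 30 min. Autophosphorylation ran 5 min with 3 uM ATP and 5 mM MnCl2 (final), stopped with 20 mM EDTA. Phosphotyrosine was detected by anti-pTyr ELISA with ABTS/H2O2, read at 410 nm.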

MET = MET biochemical kinase assay; design: species or system human; concentration or dose not given beside the values
Procedure, shortened: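 MET from cell lysates captured on ELISA plates via rabbit anti-MET cytoplasmic-domain antibody; compounds added and kinase reaction run in ATP and divalent-metal buffer. Receptor phosphotyrosine detected with HRP-conjugated anti-phosphotyrosine antibody and TMB colorimetry.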

T1 sequence (P00533 25-1210): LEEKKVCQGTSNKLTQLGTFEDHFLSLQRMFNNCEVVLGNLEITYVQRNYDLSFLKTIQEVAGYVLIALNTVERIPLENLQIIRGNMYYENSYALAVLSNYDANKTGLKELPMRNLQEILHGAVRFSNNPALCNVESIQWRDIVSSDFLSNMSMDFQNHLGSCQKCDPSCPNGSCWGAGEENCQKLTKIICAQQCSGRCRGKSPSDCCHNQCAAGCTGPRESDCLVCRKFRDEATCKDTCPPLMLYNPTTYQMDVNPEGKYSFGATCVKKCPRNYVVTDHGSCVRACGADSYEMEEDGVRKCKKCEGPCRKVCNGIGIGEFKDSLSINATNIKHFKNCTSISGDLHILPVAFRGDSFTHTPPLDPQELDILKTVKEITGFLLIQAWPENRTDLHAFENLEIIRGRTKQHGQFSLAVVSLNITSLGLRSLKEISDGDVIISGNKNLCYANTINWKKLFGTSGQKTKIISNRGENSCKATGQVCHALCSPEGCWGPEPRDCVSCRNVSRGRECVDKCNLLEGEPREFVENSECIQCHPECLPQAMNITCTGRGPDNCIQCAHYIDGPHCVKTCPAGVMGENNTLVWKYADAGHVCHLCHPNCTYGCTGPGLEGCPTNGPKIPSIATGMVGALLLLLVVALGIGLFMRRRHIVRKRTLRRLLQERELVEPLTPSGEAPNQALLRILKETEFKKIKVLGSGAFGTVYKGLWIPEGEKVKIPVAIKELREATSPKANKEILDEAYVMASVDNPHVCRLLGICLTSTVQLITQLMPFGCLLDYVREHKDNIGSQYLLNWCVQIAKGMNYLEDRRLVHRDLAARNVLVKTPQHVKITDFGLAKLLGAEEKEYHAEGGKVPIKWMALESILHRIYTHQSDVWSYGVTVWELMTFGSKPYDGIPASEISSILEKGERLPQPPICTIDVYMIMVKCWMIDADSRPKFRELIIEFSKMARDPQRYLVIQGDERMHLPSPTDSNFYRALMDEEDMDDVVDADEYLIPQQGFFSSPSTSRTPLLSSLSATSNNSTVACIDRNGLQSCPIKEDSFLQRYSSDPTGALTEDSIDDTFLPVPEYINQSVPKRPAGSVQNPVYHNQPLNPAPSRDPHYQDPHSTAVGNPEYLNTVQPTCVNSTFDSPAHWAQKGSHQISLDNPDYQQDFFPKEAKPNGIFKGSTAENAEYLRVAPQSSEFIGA

Row | Compound | Biochem EGFR %Inhibition (EGFR) [%] | Met Kinase % Inhibition (MET) [%]
1 | O=C1Nc2c(Br)cc(Br)cc2C1=Cc1ccc(Br)cc1 [10717/A08] | 39.1 | 21.7
2 | COC(=O)c1[nH]c(C)c(C=C2C(=O)Nc3ccc(I)cc32)c1C(=O)OC [10718/B07] | 9.9 | 53.7
3 | O=C1Nc2ccc(I)cc2C1=Cc1ccc(Cl)c([N+](=O)[O-])c1 [10718/B08] | 28.9 | 63.4
4 | Cc1c(O)ccc(C=C2C(=O)Nc3ccc(I)cc32)c1O [10718/B09] | -0.8 | 52.9
5 | O=C1Nc2ccc(I)cc2C1=Cc1ccco1 [10718/B10] | 13.7 | 83.6
6 | O=C1Nc2ccc(I)cc2C1=Cc1ccc([N+](=O)[O-])o1 [10718/B11] | 30.3 | 69.6
7 | CCOC(=O)c1c(C)[nH]c(C=C2C(=O)Nc3ccc(Br)c(C)c32)c1C [10718/C02] | -21.9 | 29.6
8 | COc1cc(Br)c(O)c(C=C2C(=O)Nc3ccc(Br)c(C)c32)c1 [10718/C03] | 41.3 | 95.7
9 | Cc1c(Br)ccc2c1C(=Cc1ccc3ccccc3c1O)C(=O)N2 [10718/C04] | 14.8 | 93.1
10 | O=C1Nc2ccc(S(=O)(=O)Nc3ccc(C(F)(F)F)cc3)cc2C1=Cc1cccnc1 [10729/E08] | 40.1 | 73.7
11 | O=C1Nc2ccc(S(=O)(=O)Nc3ccc(C(F)(F)F)cc3)cc2C1=Cc1ccncc1 [10729/E09] | 29.6 | 85.0
12 | O=C1Nc2ccc(S(=O)(=O)Nc3ccc(C(F)(F)F)cc3)cc2C1=Cc1ccc(N2CCCC2)cc1 [10729/E10] | 50.3 | 7.5
13 | O=C1Nc2ccc(S(=O)(=O)Nc3ccc(C(F)(F)F)cc3)cc2C1=CC1C=CCCC1 (centres unmarked) [10729/E11] | 25.7 | 50.8
14 | COc1ccc2ccccc2c1C=C1C(=O)Nc2ccc(CCCl)cc21 [10729/G02] | -4.8 | 31.3
15 | COc1ccc(C=C2C(=O)Nc3ccc(CCCl)cc32)c2ccccc12 [10729/G03] | 14.6 | 20.1
16 | CSc1ccc(C=C2C(=O)Nc3ccc(CCCl)cc32)cc1 [10729/G04] | 52.9 | 18.2
17 | Cc1ccsc1C=C1C(=O)Nc2ccc(CCCl)cc21 [10729/G05] | 4.4 | 22.6
18 | O=C1Nc2ccc(CCCl)cc2C1=Cc1cccc(Oc2ccccc2)c1 [10729/G06] | 15.2 | 26.0
19 | O=C1Nc2ccc(CCCl)cc2C1=Cc1ccccn1 [10729/G07] | -0.8 | 38.2
20 | O=C1Nc2ccc(CCCl)cc2C1=Cc1cccnc1 [10729/G08] | 6.0 | 39.9
21 | O=C1Nc2ccc(CCCl)cc2C1=Cc1ccncc1 [10729/G09] | 20.8 | 49.6

Row | Compound | Biochem EGFR %Inhibition (EGFR) [%] | Met Kinase % Inhibition (MET) [%]
22 | O=C1Nc2ccc(CCCl)cc2C1=Cc1ccc(N2CCCC2)cc1 [10729/G10] | 60.1 | 26.7
23 | O=C1Nc2ccc(CCCl)cc2C1=CC1C=CCCC1 (centres unmarked) [10729/G11] | 23.4 | 15.4
24 | COc1ccc(C=C2C(=O)Nc3c(Br)cc(Br)cc32)c(OC)c1OC [10730/A02] | 27.5 | 39.5
25 | COc1cc(OC)c(OC)cc1C=C1C(=O)Nc2c(Br)cc(Br)cc21 [10730/A03] | 34.4 | 62.3
26 | COc1cc(C=C2C(=O)Nc3c(Br)cc(Br)cc32)cc(OC)c1OC [10730/A04] | 37.2 | 70.6
27 | CC(=O)n1cc(C=C2C(=O)Nc3c(Br)cc(Br)cc32)c2ccccc21 [10730/A05] | 18.6 | 42.7
28 | O=C1Nc2c(Br)cc(Br)cc2C1=Cc1coc2ccc(Cl)cc2c1=O [10730/A06] | 6.7 | 61.0
29 | O=C1Nc2c(Br)cc(Br)cc2C1=Cc1ccc(-c2ccccc2Cl)o1 [10730/A07] | 10.4 | 55.4
30 | O=C1Nc2c(Br)cc(Br)cc2C1=Cc1cc2ccccc2nc1Cl [10730/A08] | 10.4 | 69.0
31 | O=C1Nc2c(Br)cc(Br)cc2C1=Cc1coc2c(Br)cc(Br)cc2c1=O [10730/A09] | 1.1 | 69.5
32 | COC1CC(C=C2C(=O)Nc3c(Br)cc(Br)cc32)C(OC)O1 (centres unmarked) [10730/A10] | 56.1 | 68.7
33 | Cc1cc(C=C2C(=O)Nc3c(Br)cc(Br)cc32)oc1C [10730/A11] | 56.4 | 91.0
34 | COc1ccc(C=C2C(=O)Nc3ccc(I)cc32)c(OC)c1OC [10730/B02] | 10.4 | 66.3
35 | COc1cc(OC)c(OC)cc1C=C1C(=O)Nc2ccc(I)cc21 [10730/B03] | 46.8 | 78.3
36 | COc1cc(C=C2C(=O)Nc3ccc(I)cc32)cc(OC)c1OC [10730/B04] | 36.5 | 73.2
37 | CC(=O)n1cc(C=C2C(=O)Nc3ccc(I)cc32)c2ccccc21 [10730/B05] | 8.5 | 71.1
38 | O=C1Nc2ccc(I)cc2C1=Cc1coc2ccc(Cl)cc2c1=O [10730/B06] | 25.0 | 71.3
39 | O=C1Nc2ccc(I)cc2C1=Cc1ccc(-c2ccccc2Cl)o1 [10730/B07] | 57.1 | 63.1
40 | O=C1Nc2ccc(I)cc2C1=Cc1cc2ccccc2nc1Cl [10730/B08] | 48.4 | 91.8
41 | O=C1Nc2ccc(I)cc2C1=Cc1coc2c(Br)cc(Br)cc2c1=O [10730/B09] | 14.2 | 70.6
42 | COC1CC(C=C2C(=O)Nc3ccc(I)cc32)C(OC)O1 (centres unmarked) [10730/B10] | 15.8 | 69.5

Row | Compound | Biochem EGFR %Inhibition (EGFR) [%] | Met Kinase % Inhibition (MET) [%]
43 | Cc1cc(C=C2C(=O)Nc3ccc(I)cc32)oc1C [10730/B11] | 70.2 | 81.7
44 | COc1ccc(C=C2C(=O)Nc3ccc(Br)c(C)c32)c(OC)c1OC [10730/C02] | 2.7 | 31.2
45 | COc1cc(OC)c(OC)cc1C=C1C(=O)Nc2ccc(Br)c(C)c21 [10730/C03] | -12.1 | 43.2
46 | COc1cc(C=C2C(=O)Nc3ccc(Br)c(C)c32)cc(OC)c1OC [10730/C04] | 0.1 | 43.2
47 | CC(=O)n1cc(C=C2C(=O)Nc3ccc(Br)c(C)c32)c2ccccc21 [10730/C05] | -9.8 | 46.1
48 | Cc1c(Br)ccc2c1C(=Cc1coc3ccc(Cl)cc3c1=O)C(=O)N2 [10730/C06] | 8.5 | 34.7
49 | Cc1c(Br)ccc2c1C(=Cc1ccc(-c3ccccc3Cl)o1)C(=O)N2 [10730/C07] | 20.3 | 37.4
50 | Cc1c(Br)ccc2c1C(=Cc1cc3ccccc3nc1Cl)C(=O)N2 [10730/C08] | 24.3 | 56.5
51 | Cc1c(Br)ccc2c1C(=Cc1coc3c(Br)cc(Br)cc3c1=O)C(=O)N2 [10730/C09] | 28.2 | 42.9
52 | COC1CC(C=C2C(=O)Nc3ccc(Br)c(C)c32)C(OC)O1 (centres unmarked) [10730/C10] | 20.5 | 40.3
53 | Cc1cc(C=C2C(=O)Nc3ccc(Br)c(C)c32)oc1C [10730/C11] | 38.4 | 66.6
54 | CNS(=O)(=O)c1ccc2c(c1)C(=Cc1ccc(OC)c(OC)c1OC)C(=O)N2 [10730/D02] | 18.6 | 34.7
55 | CNS(=O)(=O)c1ccc2c(c1)C(=Cc1cc(OC)c(OC)cc1OC)C(=O)N2 [10730/D03] | 9.9 | 34.2
56 | CNS(=O)(=O)c1ccc2c(c1)C(=Cc1cc(OC)c(OC)c(OC)c1)C(=O)N2 [10730/D04] | 10.4 | 33.6
57 | CNS(=O)(=O)c1ccc2c(c1)C(=Cc1cn(C(C)=O)c3ccccc13)C(=O)N2 [10730/D05] | 12.6 | 38.1
58 | CNS(=O)(=O)c1ccc2c(c1)C(=Cc1coc3ccc(Cl)cc3c1=O)C(=O)N2 [10730/D06] | 35.3 | 55.9
59 | CNS(=O)(=O)c1ccc2c(c1)C(=Cc1ccc(-c3ccccc3Cl)o1)C(=O)N2 [10730/D07] | 43.0 | 52.5
60 | CNS(=O)(=O)c1ccc2c(c1)C(=Cc1cc3ccccc3nc1Cl)C(=O)N2 [10730/D08] | 44.9 | -13.6
61 | CNS(=O)(=O)c1ccc2c(c1)C(=Cc1coc3c(Br)cc(Br)cc3c1=O)C(=O)N2 [10730/D09] | 45.1 | 59.1

Reference: EP1247803A2, “Indolinone compounds suitable for modulation of protein kinases” (Sugen, Inc., priority 1996, dated 1998)
